Test results as given in patent EP0776896A1, “Heterocyclic compounds and their use” (priority 1995, dated 1997).
Where two headings read alike, the source gives them in different places.

Experiments:
[1] = biological target: T1, muscarinic receptors (M1-site, pirenzepine sensitive site) (Rattus norvegicus, UniProt P08482); assay: Inhibition of ^3HPRZ (pirenzepine) binding to rat cerebral cortex membranes; design: species or system male Wistar rats; details: 1.0 nM ^3HPRZ, 60 min at 20°C
T1 construct: Fresh cortex (0.1-1 9) from male Wistar rats (150-200 g) is homogenized; from tissue; host or cells: rat cerebral cortex membranes
T1 sequence (P08482 1-460): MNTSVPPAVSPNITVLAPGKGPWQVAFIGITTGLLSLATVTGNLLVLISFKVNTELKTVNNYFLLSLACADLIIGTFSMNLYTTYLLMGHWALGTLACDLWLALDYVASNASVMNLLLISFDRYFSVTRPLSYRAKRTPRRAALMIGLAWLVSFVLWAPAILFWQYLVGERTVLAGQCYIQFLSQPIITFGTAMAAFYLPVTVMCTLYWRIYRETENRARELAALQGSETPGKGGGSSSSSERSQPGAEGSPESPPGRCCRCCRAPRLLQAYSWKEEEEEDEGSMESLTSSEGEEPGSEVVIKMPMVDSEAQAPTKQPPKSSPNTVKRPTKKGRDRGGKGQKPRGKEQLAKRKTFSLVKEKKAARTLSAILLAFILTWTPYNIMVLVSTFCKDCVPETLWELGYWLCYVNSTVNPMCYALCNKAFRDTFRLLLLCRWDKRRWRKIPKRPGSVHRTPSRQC
Method: Furthermore the pharmacological properties of the compounds of the invention can also be illustrated by determining their capability to inhibit ^3HPRZ (pirenzepine, [N-methyl^-3H]) binding to rat cerebral cortex membranes.
Pirenzepine binds selectively to subtype of muscarinic receptors. Historically the type is named the M1-site, whereas pirenzepine sensitive site would be more appropriate. Although selective for M1-sites pirenzepine also interact with M2-sites.
(§1) All preparations are performed at 0-4°C unless otherwise indicated. Fresh cortex (0.1-1 9) from male Wistar rats (150-200 g) is homogenized for 5-10 s in 10 mL 20 mM Hepes pH: 7.4, with an Ultra-Turrax homogenizer. The homogenizer is rinsed with 2 x 10 mL of buffer and the combined suspension centrifuged for 15 min. at 40,000 x g. The pellet is washed three times with buffer. In each step the pellet is homogenized as before in 3 x 10 mL of buffer and centrifuged for 10 min. at 40,000 x g.
The final pellet is homogenized in 20 mM Hepes pH: 7.4 (100 mL per g of original tissue) and used for binding assay. Aliquots of 0.5 mL is added 20 µL of test solution and 25 µL of ^3HPRZ (1.0 nM, final conc.), mixed and incubated for 60 min. at 20°C. Non-specific binding is determined in triplicate using atropine (1.0 µg/mL, final conc.) as the test substance. After incubation samples are added 5 mL of ice-cold buffer and poured directly onto Whatman GF/C glass fiber filters under suction and immediately washed 2 times with 5 mL of ice-cold buffer. The amount of radioactivity on the filters are determined by conventional liquid scintillation counting. Specific binding is total binding minus non-specific binding.
Test substances are dissolved in 10 mL water, at a concentration of 0.22 mg/mL. 25-75% inhibition of specific binding must be obtained before calculation of IC50.
The test value will be given as IC50 (the concentration (nM) of the test substance which inhibits the specific binding of ^3HPRZ by 50%). IC50 = (applied test substance concentration) x(Cx/Co-Cx)nM where Co is specific binding in control assays and Cx is the specific binding in the test assay. (The calculations assume normal mass-action kinetics).

[2] = biological target: muscarinic acetylcholine receptors; assay: Inhibition of specific binding of ^3H-Oxotremorine-M to rat cortex homogenate; design: species or system male Wistar rats; details: 1.0 nM ^3H-Oxotremorine, 30 min at 25°C, read-out: ^3H-Oxo-M IC50
Source text: The pharmacological properties of the compounds of the invention can be illustrated by determining their capability to inhibit the specific binding of ^3H-Oxotremorine-M (^3H-Oxo). Birdsdall N.J.M., Hulme E.C., and Burgen A.S.V. (1980). "The Character of Muscarinic Receptors in Different Regions of the Rat Brain". Proc. Roy. Soc. London (Series B) 207,1.
^3H-Oxo labels muscarinic receptor in the CNS (with a preference for agonist domains of the receptors). Three different sites are labeled by ^3H-Oxo. […] Using the present experimental conditions only the high and medium affinity sites are determined.
The inhibitory effects of compounds on ^3H-oxo binding reflects the affinity for muscarinic acetylcholine receptors.
as §1, with “g)” for “9)”, “(150-250” for “(150-200”, “[…]” for “mM”, “with” for “with 2 x”, “2” for “3”
The final pellet is homogenized in 20 mM Hepes pH: 7.4 (100 mL per g of original tissue) and used for binding assay. Aliquots of 0.5 mL is added 25 µL of test solution and 25 µL of ^3H-Oxotremorine (1.0 nM, final concentration) mixed and incubated for 30 min. at 25°C. Non-specific binding is determined in triplicate using arecoline (1 µg/mL, final concentration) as the test substance. After incubation samples are added 5 mL of ice-cold buffer and poured directly onto Whatman GF/C glass fiber filters under suction and immediately washed 2 times with 5 mL of ice-cold buffer. The amount of radioactivity on the filters are determined by conventional liquid scintillation counting. Specific binding is total binding minus non specific binding.
Test substances are dissolved in 10 mL water (if necessary heated on a steam-bath for less than 5 min.) at a concentration of 2.2 mg/mL. 25-75% inhibition of specific binding must be obtained before calculation of IC50. The test value will be given as IC50 (the concentration (nM) of the test substance which inhibits the specific binding of ^3H-oxo by 50%). IC50 = (applied test substance concentration) x(Cx/Co-Cx)nM where Co is specific binding in control assays and Cx is the specific binding in the test assay. (The calculations assume normal mass-action kinetics).

| Compound | IC50 ([1]; read-out: ^3HPRZ IC50) [nM] | IC50 [2] [µM] | IC50 ([1]; ^3HPRZ IC50,nM) [nM] |
| --- | --- | --- | --- |
| N#Cc1ccc(CSc2nsnc2C2CC3CCC2NC3)s1 (stereo not drawn) [Compound 25, ENDO 2-Aza-6-(4-((5-cyanothien-2-yl)methylthio)-1,2,5-thiadiaz-3-yl)-bicyclo[2.2.2]octane] | 6.2 | – | – |
| CCCCCSc1nsnc1C1CC2CCC1NC2 (stereo not drawn) [Compound 16, EXO 2-aza-6-(4-pentylthio-1,2,5-thiadiaz-3-yl)-bicyclo[2.2.2]octane] | – | 0.083 | 45 |
| CCCCCCOc1nsnc1C1CC2CCC1N(C)C2 (single isomer, unassigned) [Compound 8, EXO 2-Aza-6-(4-hexyloxy-1,2,5-thiadiaz-3-yl)-2-methylbicyclo[2.2.2]octane] | 58 | – | – |
| CCCCCOc1nsnc1C1CC2CCC1NC2 (stereo not drawn) [Compound 31, EXO 2-aza-6-(4-pentoxy-1,2,5-thiadiaz-3-yl)bicyclo[2.2.2]octane] | 80 | – | – |
| CCCCOc1nsnc1C1CC2CCC1NC2 (single isomer, unassigned) [Compound 4, ENDO 2-aza-6-(4-butyloxy-1,2,5-thiadiaz-3-yl)-bicyclo[2.2.2]octane] | 17 | 0.0042 | – |
| CCCCCCOc1nsnc1C1CC2CCC1N(C)C2 (single isomer, unassigned) [Compound 7, ENDO 2-Aza-6-(4-hexyloxy-1,2,5-thiadiaz-3-yl)-2-methylbicyclo[2.2.2]octane] | 21 | – | – |
| CCCCCSc1nsnc1C1CC2CCC1NC2 (stereo not drawn) [Compound 15, ENDO 2-aza-6-(4-thiopentyl-1,2,5-thiadiaz-3-yl)bicyclo[2.2.2]octane] | – | 0.0034 | 5 |
| FC(F)(F)CCCSc1nsnc1C1CC2CCC1NC2 (stereo not drawn) [Compound 20, ENDO 2-Aza-6-(4-((4,4,4-trifluorobutyl)thio)-1,2,5-thiadiaz-3-yl)-bicyclo[2.2.2]octane] | 5.5 | – | – |
| FC(F)(F)c1ccc(COc2nsnc2C2CC3CCC2NC3)cc1 (stereo not drawn) [Compound 32, EXO 2-Aza-6-(4-((4-trifluoromethylphenyl)methoxy)-1,2,5-thiadiaz-3-yl)-bicyclo[2.2.2]octane] | 244 | – | – |
| CSc1nsnc1C1CC2CCC1NC2 (stereo not drawn) [Compound 19] | 128 | 0.018 | – |
| CCCOc1nsnc1C1CC2CCC1NC2 (stereo not drawn) [Compound 13, EXO 2-Aza-6-(4-propoxy-1,2,5-thiadiaz-3-yl)bicyclo[2.2.2]octane] | 172 | 0.263 | – |
| N#Cc1ccc(CSc2nsnc2C2CC3CCC2NC3)cc1 (stereo not drawn) [Compound 23, ENDO 2-Aza-6-(4-((4-cyanophenyl)methylthio)-1,2,5-thiadiaz-3-yl)-bicyclo[2.2.2]octane] | – | 0.026 | 36 |
| CCCCSc1nsnc1C1CC2CCC1NC2 (stereo not drawn) [Compound 9, ENDO 2-aza-6-(4-butylthio-1,2,5-thiadiaz-3-yl)bicyclo[2.2.2]octane] | 2.7 | 0.002 | – |
| N#Cc1ccc(CSc2nsnc2C2CC3CCC2NC3)cc1 (stereo not drawn) [Compound 24, EXO 2-Aza-6-(4-((4-cyanophenyl)methylthio)-1,2,5-thiadiaz-3-yl)-bicyclo[2.2.2]octane] | – | 0.06 | 91 |
| CCCCCCSc1nsnc1C1CC2CCC1NC2 (stereo not drawn) [Compound 27, EXO 2-Aza-6-(4-hexylthio-1,2,5-thiadiaz-3-yl)bicyclo[2.2.2]octane] | 2.3 | – | – |
| CC(C)CCCSc1nsnc1C1CC2CCC1NC2 (stereo not drawn) [Compound 18, ENDO 2-Aza-6-(4-((4-methylpentyl)thio)-1,2,5-thiadiaz-3-yl)bicyclo[2.2.2]octane] | 13 | – | – |
| CCCSc1nsnc1C1CC2CCC1NC2 (stereo not drawn) [Compound 11, ENDO 2-Aza-6-(4-propylthio-1,2,5-thiadiaz-3-yl)bicyclo[2.2.2]octane] | 13 | 0.0041 | – |
| CCCCOc1nsnc1C1CC2CCC1NC2 (single isomer, unassigned) [Compound 5, EXO 2-aza-6-(4-butyloxy-1,2,5-thiadiaz-3-yl)bicyclo[2.2.2]octane] | 139 | 0.143 | – |
| CCCCCCSc1nsnc1C1CC2CCC1NC2 (stereo not drawn) [Compound 28, EXO 2-Aza-6-(4-hexylthio-1,2,5-thiadiaz-3-yl)bicyclo[2.2.2]octane] | 62 | – | – |
| CC(C)CCCSc1nsnc1C1CC2CCC1NC2 (stereo not drawn) [Compound 17] | 170 | – | – |
| CSc1nsnc1C1CC2CCC1NC2 (stereo not drawn) [Compound 14, EXO 2-Aza-6-(4-methylthio-1,2,5-thiadiaz-3-yl)bicyclo[2.2.2]octane] | 365 | 0.685 | – |
| CCCCCOc1nsnc1C1CC2CCC1NC2 (stereo not drawn) [Compound 30, ENDO 2-aza-6-(4-pentoxy-1,2,5-thiadiaz-3-yl)-bicyclo[2.2.2]octane] | 15 | – | – |
| FC(F)(F)c1ccc(COc2nsnc2C2CC3CCC2NC3)cc1 (stereo not drawn) [Compound 33, EXO 2-Aza-6-(4-((4-trifluoromethylphenyl)methoxy)-1,2,5-thiadiaz-3-yl)-bicyclo[2.2.2]octane] | 273 | – | – |
| FC(F)(F)c1ccc(CSc2nsnc2C2CC3CCC2NC3)cc1 (stereo not drawn) [Compound 22, EXO 2-Aza-6-(4-(((4-trifluoromethyl)phenyl)methylthio)-1,2,5-thiadiaz-3-yl)-bicyclo[2.2.2]octane] | 444 | – | – |
| N#Cc1ccc(CSc2nsnc2C2CC3CCC2NC3)s1 (stereo not drawn) [Compound 26, EXO 2-Aza-6-(4-((5-cyanothien-2-yl)methylthio)-1,2,5-thiadiaz-3-yl)-bicyclo[2.2.2]octane] | 20 | – | – |
